Entries after “also recorded” stand apart in the source; their conditions may differ.
How the values were obtained:
RORγ = molecular target: T1, RORγ (Homo sapiens, UniProt P51449); test: TR-FRET RORγ coactivator assay (LanthaScreen); settings: RORγ LBD
T1 sequence (P51449 269-508 limits assumed): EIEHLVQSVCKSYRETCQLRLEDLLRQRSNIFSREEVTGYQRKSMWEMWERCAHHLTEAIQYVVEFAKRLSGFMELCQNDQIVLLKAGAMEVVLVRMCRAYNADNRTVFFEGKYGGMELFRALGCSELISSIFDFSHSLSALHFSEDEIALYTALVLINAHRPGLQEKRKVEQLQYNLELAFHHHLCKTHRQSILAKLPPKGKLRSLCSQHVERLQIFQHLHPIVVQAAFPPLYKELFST

[1] = system: MC38 mouse colon tumour [MC38小鼠结肠肿瘤]; test: In vivo efficacy: MC38 colon tumour growth in syngeneic C57BL/6 mice; settings: for TGI (tumour growth inhibition rate): MC38 in C57BL/6 mice

| SMILES | effect on RORγ in vitro activity (mode of modulation, in words) (RORγ) | also measured |
| --- | --- | --- |
| CCS(=O)(=O)c1ccc(CNC(=O)c2ccc3c(c2)cc(Cc2ccc(F)cc2C(F)(F)F)n3C(C)C)cc1 [实施例4, N-(4-(乙磺酰基)苄基)-2-(4-氟-2-(三氟甲基)苄基)-1-异丙基-1H-吲哚-5-甲酰胺] | 表现出激动的效果 | – |
| CCc1ccccc1Cc1cc2cc(C(=O)NCc3ccc(S(=O)(=O)CC)cc3)ccc2n1C(C)C [实施例10, 2-(2-(乙基苄基)-N-(4-(乙磺酰基)苄基)-1-异丙基-1H-吲哚-5-甲酰胺] | 表现出激动的效果 | – |
| CCS(=O)(=O)c1ccc(CNC(=O)c2ccc3c(c2)cc(Cc2ccc(C(F)(F)F)cc2)n3C(C)C)cc1 [实施例14, N-(4-(乙磺酰基)苄基)-1-异丙基-2-(4-(三氟甲基)苄基)-1H-吲哚-5-甲酰胺] | 表现出抑制的效果 | – |
| CCS(=O)(=O)c1ccc(CNC(=O)c2ccc3c(c2)cc(Cc2ccc(C(F)(F)F)cc2F)n3C(C)C)cc1 [实施例15, N-(4-(乙磺酰基)苄基)-2-(2-氟-4-(三氟甲基)苄基)-1-异丙基-1H-吲哚-5-甲酰胺] | 表现出抑制的效果 | – |
| CCS(=O)(=O)c1ccc(CNC(=O)c2ccc3c(c2)cc(Cc2cccc(C(F)(F)F)c2)n3C(C)C)cc1 [实施例17, N-(4-(乙磺酰基)苄基)-1-异丙基-2-(3-(三氟甲基)苄基)-1H-吲哚-5-甲酰胺] | 表现出抑制的效果 | – |
| CCS(=O)(=O)c1ccc(CNC(=O)c2ccc3c(c2)cc(Cc2ccc(OC(F)(F)F)cc2)n3C(C)C)cc1 [实施例18, N-(4-(乙磺酰基)苄基)-1-异丙基-2-(4-(三氟甲氧基)苄基)-1H-吲哚-5-甲酰胺] | 表现出抑制的效果 | – |
| CCS(=O)(=O)c1ccc(CNC(=O)c2ccc3c(c2)cc(Cc2ccc(Cl)cc2C(F)(F)F)n3CCF)cc1 [实施例30, 2-(4-氯-2-(三氟甲基)苄基)-N-(4-(乙磺酰基)苄基)-1-(2-氟乙基)-1H-吲哚-5-甲酰胺] | – | TGI (tumour growth inhibition rate) ([1]; Example 30 (12.5 mg/kg) combined with anti-mouse PD-1 monoclonal antibody (5 mg/mouse)): 68%; synergy in words ([1]; Example 30 combined with PD-1 antibody, MC38 colon tumour model): 较强的协同效应; also recorded: 较强的协同作用; biological activity in vivo in words (RORγ activation versus inhibition) ([1]; MC38 colon tumour model, conclusion of the applicant): 具有与RORγ激活(而非抑制)一致的生物活性; TGI (tumour growth inhibition rate) ([1]; single agent, 12.5 mg/kg, twice daily, 21 days): 34%; antitumour effect in words ([1]; single agent, MC38 colon tumour model): 表现出抑瘤活性 |

Reference: CN107531679A, “芳香酰胺类衍生物、其制备方法及其在医药上的应用” (Jiangsu Hengrui Medicine Co Ltd, priority 2016, dated 2017)
